Results as given in US10351575B2, “Bicyclic urea, thiourea, guanidine and cyanoguanidine compounds useful for the treatment of pain” (Array BioPharma Inc., priority 2012, dated 2019).

Columns and labels:
Assay in all cases: KinaseProfiler off-target kinase profiling
Format in all cases: biochemical
Conditions in all cases: 10 μM, ATP near Km
CDK5/p25 = CDK5/p25 (Homo sapiens (Human), UniProt Q00535)
How it was run: (§1)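 Single-point profiling: the compound is run at 10 μM against the kinase, ATP being set near that enzyme's Km. Duplicate determinations are averaged and expressed as POC.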

DAPK2 = DAPK2 (Homo sapiens (Human), UniProt Q9UIK4)
How it was run: as §1

TNK2 = TNK2 (Homo sapiens (Human), UniProt Q07912)
How it was run: as §1

CLK2 = CLK2 (Homo sapiens (Human), UniProt P49760)
How it was run: as §1

PDGFRalpha = PDGFRalpha (Homo sapiens (Human), UniProt P16234)
How it was run: as §1

MKK4_m = MKK4_m (Mus musculus (Mouse), UniProt P47809)
How it was run: as §1

CDK5/p35 = CDK5/p35 (Homo sapiens (Human), UniProt Q00535)
How it was run: as §1

EphB4 = EphB4 (Homo sapiens (Human), UniProt P54760)
How it was run: as §1

MSK2 = MSK2 (Homo sapiens (Human), UniProt O75676)
How it was run: as §1

LIMK1 = LIMK1 (Homo sapiens (Human), UniProt P53667)
How it was run: as §1

FAK2 = FAK2 (Homo sapiens (Human), UniProt Q14289)
How it was run: as §1

RIPK2 = RIPK2 (Homo sapiens (Human), UniProt O43353)
How it was run: as §1

IRAK1 = IRAK1 (Homo sapiens (Human), UniProt P51617)
How it was run: as §1

IR = IR (Homo sapiens (Human), UniProt P06213)
How it was run: as §1

LKB1 = LKB1 (Homo sapiens (Human), UniProt Q15831)
How it was run: as §1

SRC = SRC (Homo sapiens (Human), UniProt P12931)
How it was run: as §1

EphB3 = EphB3 (Homo sapiens (Human), UniProt P54753)
How it was run: as §1

IR Activated = IR Activated (Homo sapiens (Human), UniProt P06213)
How it was run: as §1

PKCalpha = PKCalpha (Homo sapiens (Human), UniProt P17252)
How it was run: as §1

Abl2 = Abl2 (Homo sapiens (Human), UniProt P42684)
How it was run: as §1

MRCKbeta = MRCKbeta (Homo sapiens (Human), UniProt Q9Y5S2)
How it was run: as §1

Pim-3 = Pim-3 (Homo sapiens (Human), UniProt Q86V86)
How it was run: as §1

CK1gamma2 = CK1gamma2 (Homo sapiens (Human), UniProt P78368)
How it was run: as §1

Haspin = Haspin (Homo sapiens (Human), UniProt Q8TF76)
How it was run: as §1

Rsk1 = Rsk1 (Homo sapiens (Human), UniProt Q15418)
How it was run: as §1

p38alpha = p38alpha (Homo sapiens (Human), UniProt Q16539)
How it was run: as §1

MKK7beta = MKK7beta (Homo sapiens (Human), UniProt O14733)
How it was run: as §1

TSSK1 = TSSK1 (Homo sapiens (Human), UniProt Q9BXA7)
How it was run: as §1

Fgr = Fgr (Homo sapiens (Human), UniProt P09769)
How it was run: as §1

SGK1 = SGK1 (Homo sapiens (Human), UniProt O00141)
How it was run: as §1

Pim-1 = Pim-1 (Homo sapiens (Human), UniProt P11309)
How it was run: as §1

AURKA = AURKA (Homo sapiens (Human), UniProt O14965)
How it was run: as §1

CK2 = CK2 (Homo sapiens (Human), UniProt P68400)
How it was run: as §1

DYRK2 = DYRK2 (Homo sapiens (Human), UniProt Q92630)
How it was run: as §1

TAO1 = TAO1 (Homo sapiens (Human), UniProt Q7L7X3)
How it was run: as §1

TrkA = TrkA (Homo sapiens (Human), UniProt P04629)
How it was run: as §1

Pim-2 = Pim-2 (Homo sapiens (Human), UniProt Q9P1W9)
How it was run: as §1

PAK4 = PAK4 (Homo sapiens (Human), UniProt O96013)
How it was run: as §1

JAK2 = JAK2 (Homo sapiens (Human), UniProt O60674)
How it was run: as §1

MSK2, sequence (O75676 whole entry): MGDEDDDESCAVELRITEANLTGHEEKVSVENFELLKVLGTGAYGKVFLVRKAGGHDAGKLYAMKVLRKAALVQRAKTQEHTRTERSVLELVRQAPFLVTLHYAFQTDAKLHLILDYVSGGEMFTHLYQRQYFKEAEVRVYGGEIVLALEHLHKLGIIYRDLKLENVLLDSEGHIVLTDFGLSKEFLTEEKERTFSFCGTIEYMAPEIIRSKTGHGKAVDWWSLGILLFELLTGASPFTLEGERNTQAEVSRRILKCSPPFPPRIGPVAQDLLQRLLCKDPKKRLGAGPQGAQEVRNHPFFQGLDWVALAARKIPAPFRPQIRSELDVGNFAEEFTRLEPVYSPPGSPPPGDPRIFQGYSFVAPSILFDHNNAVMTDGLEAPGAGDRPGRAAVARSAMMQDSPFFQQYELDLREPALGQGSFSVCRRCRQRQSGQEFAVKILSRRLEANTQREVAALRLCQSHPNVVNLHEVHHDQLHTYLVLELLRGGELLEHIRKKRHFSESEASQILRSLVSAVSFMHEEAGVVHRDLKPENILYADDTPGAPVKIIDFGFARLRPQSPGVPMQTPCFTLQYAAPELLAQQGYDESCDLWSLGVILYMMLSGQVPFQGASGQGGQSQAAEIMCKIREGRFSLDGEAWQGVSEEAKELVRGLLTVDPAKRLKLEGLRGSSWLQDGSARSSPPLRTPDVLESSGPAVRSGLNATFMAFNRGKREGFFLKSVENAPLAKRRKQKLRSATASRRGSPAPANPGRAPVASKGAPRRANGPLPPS
TAO1, sequence (Q7L7X3 whole entry): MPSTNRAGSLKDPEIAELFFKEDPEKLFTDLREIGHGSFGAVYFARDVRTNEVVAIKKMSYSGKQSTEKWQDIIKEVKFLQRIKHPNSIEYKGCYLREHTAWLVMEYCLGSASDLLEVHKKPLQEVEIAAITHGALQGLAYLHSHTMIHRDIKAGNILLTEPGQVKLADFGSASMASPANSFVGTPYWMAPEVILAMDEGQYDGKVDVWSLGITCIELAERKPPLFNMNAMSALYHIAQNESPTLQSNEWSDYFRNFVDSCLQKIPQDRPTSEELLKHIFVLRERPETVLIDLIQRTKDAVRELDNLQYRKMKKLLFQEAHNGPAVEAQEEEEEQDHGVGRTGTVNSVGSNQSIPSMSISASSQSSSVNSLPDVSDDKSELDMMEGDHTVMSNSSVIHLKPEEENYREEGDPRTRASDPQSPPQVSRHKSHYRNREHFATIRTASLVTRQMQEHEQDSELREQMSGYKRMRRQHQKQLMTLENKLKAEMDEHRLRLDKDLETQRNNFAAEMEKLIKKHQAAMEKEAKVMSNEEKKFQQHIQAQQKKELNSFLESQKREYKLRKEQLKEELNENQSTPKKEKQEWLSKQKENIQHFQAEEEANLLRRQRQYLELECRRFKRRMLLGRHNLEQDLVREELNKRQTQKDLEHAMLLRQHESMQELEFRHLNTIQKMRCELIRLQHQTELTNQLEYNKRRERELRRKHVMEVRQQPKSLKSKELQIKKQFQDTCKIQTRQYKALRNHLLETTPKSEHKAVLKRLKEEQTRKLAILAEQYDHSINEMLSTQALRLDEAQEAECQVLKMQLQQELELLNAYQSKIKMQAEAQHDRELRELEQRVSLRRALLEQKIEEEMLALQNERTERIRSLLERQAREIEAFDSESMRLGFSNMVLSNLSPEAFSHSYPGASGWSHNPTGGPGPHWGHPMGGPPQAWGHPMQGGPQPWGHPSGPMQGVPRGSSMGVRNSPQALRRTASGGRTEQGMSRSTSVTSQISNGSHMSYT
Pim-1, sequence (P11309 whole entry): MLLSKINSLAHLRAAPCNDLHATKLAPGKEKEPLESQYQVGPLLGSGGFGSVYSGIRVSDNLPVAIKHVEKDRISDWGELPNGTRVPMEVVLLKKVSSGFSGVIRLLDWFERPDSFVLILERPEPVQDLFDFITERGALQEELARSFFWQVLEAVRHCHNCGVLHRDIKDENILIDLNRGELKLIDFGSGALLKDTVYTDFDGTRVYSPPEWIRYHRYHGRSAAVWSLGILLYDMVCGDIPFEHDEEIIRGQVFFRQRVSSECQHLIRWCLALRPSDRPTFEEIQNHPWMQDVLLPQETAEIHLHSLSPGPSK
MKK4_m, sequence (P47809 whole entry): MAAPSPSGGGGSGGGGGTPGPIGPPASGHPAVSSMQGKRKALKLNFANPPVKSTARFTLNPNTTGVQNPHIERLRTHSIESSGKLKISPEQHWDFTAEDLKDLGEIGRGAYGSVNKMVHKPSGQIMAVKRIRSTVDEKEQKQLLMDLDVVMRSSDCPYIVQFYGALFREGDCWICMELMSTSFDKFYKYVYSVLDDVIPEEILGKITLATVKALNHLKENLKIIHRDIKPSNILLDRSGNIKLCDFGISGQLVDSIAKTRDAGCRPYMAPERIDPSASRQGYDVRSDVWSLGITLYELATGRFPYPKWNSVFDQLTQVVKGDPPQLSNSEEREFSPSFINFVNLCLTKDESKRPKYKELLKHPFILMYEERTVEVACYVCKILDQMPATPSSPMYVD
LKB1, sequence (Q15831 whole entry): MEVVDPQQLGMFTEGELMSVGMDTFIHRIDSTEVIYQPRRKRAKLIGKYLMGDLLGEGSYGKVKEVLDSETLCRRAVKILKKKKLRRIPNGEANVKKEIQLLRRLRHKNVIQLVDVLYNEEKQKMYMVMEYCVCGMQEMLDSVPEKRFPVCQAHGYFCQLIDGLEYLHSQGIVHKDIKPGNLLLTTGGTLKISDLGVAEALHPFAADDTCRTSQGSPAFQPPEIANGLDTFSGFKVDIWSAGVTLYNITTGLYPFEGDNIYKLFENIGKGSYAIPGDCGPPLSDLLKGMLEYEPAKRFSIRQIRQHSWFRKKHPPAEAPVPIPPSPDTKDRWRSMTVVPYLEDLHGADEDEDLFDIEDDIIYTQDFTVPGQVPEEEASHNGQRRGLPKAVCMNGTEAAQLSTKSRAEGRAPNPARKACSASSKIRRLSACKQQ
LKB1, sequence (Q7RTN6 whole entry partner): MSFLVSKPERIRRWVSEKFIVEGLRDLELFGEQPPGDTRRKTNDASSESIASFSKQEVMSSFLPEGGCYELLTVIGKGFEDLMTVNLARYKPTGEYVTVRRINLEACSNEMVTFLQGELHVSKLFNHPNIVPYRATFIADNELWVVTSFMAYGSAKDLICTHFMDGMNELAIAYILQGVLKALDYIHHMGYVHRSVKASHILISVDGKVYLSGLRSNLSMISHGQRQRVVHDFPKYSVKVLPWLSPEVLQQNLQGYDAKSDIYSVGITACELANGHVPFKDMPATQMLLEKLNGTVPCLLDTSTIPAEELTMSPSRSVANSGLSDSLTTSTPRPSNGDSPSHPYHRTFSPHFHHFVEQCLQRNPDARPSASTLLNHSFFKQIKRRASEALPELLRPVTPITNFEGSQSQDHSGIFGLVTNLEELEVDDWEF
LKB1, sequence (Q9Y376 whole entry partner): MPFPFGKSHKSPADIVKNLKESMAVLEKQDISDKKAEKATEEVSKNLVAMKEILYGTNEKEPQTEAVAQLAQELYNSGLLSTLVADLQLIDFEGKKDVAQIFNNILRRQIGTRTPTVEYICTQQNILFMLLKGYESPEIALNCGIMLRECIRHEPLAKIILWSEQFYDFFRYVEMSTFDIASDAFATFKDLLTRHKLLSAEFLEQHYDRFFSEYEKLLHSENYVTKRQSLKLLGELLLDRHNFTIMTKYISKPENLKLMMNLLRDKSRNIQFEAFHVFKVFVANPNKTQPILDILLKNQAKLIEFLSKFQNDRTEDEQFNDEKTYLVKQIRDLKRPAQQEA
Pim-2, sequence (Q9P1W9 whole entry): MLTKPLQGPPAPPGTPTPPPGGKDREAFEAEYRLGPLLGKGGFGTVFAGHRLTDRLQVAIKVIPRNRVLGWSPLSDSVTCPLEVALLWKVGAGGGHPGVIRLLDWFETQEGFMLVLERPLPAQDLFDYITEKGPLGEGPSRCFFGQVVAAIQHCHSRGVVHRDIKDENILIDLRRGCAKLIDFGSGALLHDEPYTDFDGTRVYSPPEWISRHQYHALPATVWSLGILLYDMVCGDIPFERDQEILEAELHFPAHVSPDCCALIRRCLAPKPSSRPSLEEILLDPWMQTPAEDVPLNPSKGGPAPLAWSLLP
LIMK1, sequence (P53667 whole entry): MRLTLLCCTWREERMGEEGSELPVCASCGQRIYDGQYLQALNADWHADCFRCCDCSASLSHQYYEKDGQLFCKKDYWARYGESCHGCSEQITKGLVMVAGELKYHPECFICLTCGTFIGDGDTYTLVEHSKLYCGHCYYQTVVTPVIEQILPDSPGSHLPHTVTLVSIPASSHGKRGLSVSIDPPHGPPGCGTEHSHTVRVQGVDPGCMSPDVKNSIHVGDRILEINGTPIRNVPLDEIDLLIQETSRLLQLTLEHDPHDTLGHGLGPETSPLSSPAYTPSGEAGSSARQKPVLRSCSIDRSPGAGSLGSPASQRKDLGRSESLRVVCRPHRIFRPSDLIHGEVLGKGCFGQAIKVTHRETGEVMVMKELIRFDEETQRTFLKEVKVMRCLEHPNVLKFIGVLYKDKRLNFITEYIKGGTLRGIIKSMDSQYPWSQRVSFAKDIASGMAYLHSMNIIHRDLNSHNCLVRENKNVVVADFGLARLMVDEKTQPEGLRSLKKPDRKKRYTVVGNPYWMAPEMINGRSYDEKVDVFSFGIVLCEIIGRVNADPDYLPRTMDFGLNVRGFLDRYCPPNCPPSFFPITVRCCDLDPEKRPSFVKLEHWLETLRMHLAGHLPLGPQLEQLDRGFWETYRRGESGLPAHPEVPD
IR Activated, sequence (P06213 1005-1310 limits assumed): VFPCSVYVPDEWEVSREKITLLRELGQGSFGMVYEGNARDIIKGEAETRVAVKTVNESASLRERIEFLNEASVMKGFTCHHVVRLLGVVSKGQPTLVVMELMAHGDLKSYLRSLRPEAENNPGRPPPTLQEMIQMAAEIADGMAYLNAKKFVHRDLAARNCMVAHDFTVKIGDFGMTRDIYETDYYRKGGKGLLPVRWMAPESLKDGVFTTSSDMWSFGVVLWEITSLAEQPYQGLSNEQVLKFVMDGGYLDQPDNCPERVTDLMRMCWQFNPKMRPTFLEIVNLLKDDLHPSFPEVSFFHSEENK

| Avg. POC (CDK5/p25) | Avg. POC (DAPK2) | Avg. POC (TNK2) | Avg. POC (CLK2) | Avg. POC (PDGFRalpha) | Avg. POC (MKK4_m) | Avg. POC (CDK5/p35) | Avg. POC (EphB4) | Avg. POC (MSK2) | Avg. POC (LIMK1) | Avg. POC (FAK2) | Avg. POC (RIPK2) | Avg. POC (IRAK1) | Avg. POC (IR) | Avg. POC (LKB1) | Avg. POC (SRC) | Avg. POC (EphB3) | Avg. POC (IR Activated) | Avg. POC (PKCalpha) | Avg. POC (Abl2) | Structure (SMILES) | also measured |
| --- | --- | --- | --- | --- | --- | --- | --- | --- | --- | --- | --- | --- | --- | --- | --- | --- | --- | --- | --- | --- | --- |
| 107.5 POC | 123.5 POC | 100.5 POC | 115.5 POC | 123 POC | 102.5 POC | 124 POC | 118.5 POC | 112 POC | 105 POC | 120 POC | 108 POC | 107 POC | 44 POC | 103.5 POC | 99.5 POC | 110 POC | 103 POC | 96 POC | 112.5 POC | Cc1c(-c2cnn(C)c2)nn(-c2ccccc2)c1NC(=O)N[C@H]1CCCc2ccccc21 [Example 2, (S)-1-(1′,4-dimethyl-1-phenyl-1H,1′H-3,4′-bipyrazol-5-yl)-3-(1,2,3,4-tetrahydronaphthalen-1-yl)urea] | Avg. POC (MRCKbeta): 129.5 POC; Avg. POC (Pim-3): 98 POC; Avg. POC (CK1gamma2): 142.5 POC; Avg. POC (Haspin): 92.5 POC; Avg. POC (Rsk1): 117 POC; Avg. POC (p38alpha): 102.5 POC; Avg. POC (MKK7beta): 129.5 POC; Avg. POC (TSSK1): 106 POC; Avg. POC (Fgr): 131 POC; Avg. POC (SGK1): 150 POC; Avg. POC (Pim-1): 173 POC; Avg. POC (AURKA): 126 POC; Avg. POC (CK2): 107 POC; Avg. POC (DYRK2): 98 POC; Avg. POC (TAO1): 110.5 POC; Avg. POC (TrkA): 1.5 POC; Avg. POC (Pim-2): 148 POC; Avg. POC (PAK4): 95 POC; Avg. POC (JAK2): 233 POC |
| 104 POC | 102.5 POC | 117.5 POC | 100 POC | 104.5 POC | 144.5 POC | 106.5 POC | 121 POC | 127 POC | 97.5 POC | 111 POC | 99 POC | 102.5 POC | 92 POC | 91 POC | 97 POC | 89 POC | 109 POC | 104 POC | 118 POC | Cc1c(-c2cnn(C)c2)nn(-c2ccccc2)c1NC(=O)NC1CCOc2cc(F)ccc21 (stereo not drawn) [Example 12, 1-(1′,4-dimethyl-1-phenyl-1H,1′H-[3,4′-bipyrazol]-5-yl)-3-(7-fluorochroman-4-yl)urea] | Avg. POC (MRCKbeta): 103.5 POC; Avg. POC (Pim-3): 100.5 POC; Avg. POC (CK1gamma2): 114.5 POC; Avg. POC (Haspin): 97 POC; Avg. POC (Rsk1): 107.5 POC; Avg. POC (p38alpha): 110 POC; Avg. POC (MKK7beta): 122.5 POC; Avg. POC (TSSK1): 79 POC; Avg. POC (Fgr): 114.5 POC; Avg. POC (SGK1): 129 POC; Avg. POC (Pim-1): 106 POC; Avg. POC (AURKA): 111 POC; Avg. POC (CK2): 98 POC; Avg. POC (DYRK2): 97.5 POC; Avg. POC (TAO1): 104 POC; Avg. POC (TrkA): −0.5 POC; Avg. POC (Pim-2): 118.5 POC; Avg. POC (PAK4): 103 POC; Avg. POC (JAK2): 122.5 POC |
| 109 POC | 108.5 POC | 123 POC | 108.5 POC | 104.5 POC | 99.5 POC | 110.5 POC | 115 POC | 107.5 POC | 102 POC | 104.5 POC | 98 POC | 110.5 POC | 82.5 POC | 95 POC | 104.5 POC | 97 POC | 106 POC | 107.5 POC | 105 POC | Cc1c(-c2ccc(=O)n(C)c2)nn(-c2ccccc2)c1NC(=O)NC1CN(CC(F)(F)F)Cc2ccccc21 (stereo not drawn) [Example 26, 1-(4-methyl-3-(1-methyl-6-oxo-1,6-dihydropyridin-3-yl)-1-phenyl-1H-pyrazol-5-yl)-3-(2-(2,2,2-trifluoroethyl)-1,2,3,4-tetrahydroisoquinolin-4-yl)urea] | Avg. POC (MRCKbeta): 110 POC; Avg. POC (Pim-3): 98 POC; Avg. POC (CK1gamma2): 112.5 POC; Avg. POC (Haspin): 92 POC; Avg. POC (Rsk1): 121 POC; Avg. POC (p38alpha): 104.5 POC; Avg. POC (MKK7beta): 144.5 POC; Avg. POC (TSSK1): 71.5 POC; Avg. POC (Fgr): 114.5 POC; Avg. POC (SGK1): 97.5 POC; Avg. POC (Pim-1): 97.5 POC; Avg. POC (AURKA): 107.5 POC; Avg. POC (CK2): 110.5 POC; Avg. POC (DYRK2): 103 POC; Avg. POC (TAO1): 105.5 POC; Avg. POC (TrkA): 0.5 POC; Avg. POC (Pim-2): 120.5 POC; Avg. POC (PAK4): 100.5 POC; Avg. POC (JAK2): 134.5 POC |
| 106 POC | 103 POC | 132 POC | 105.5 POC | 112.5 POC | 133 POC | 112 POC | 106 POC | 99.5 POC | 95 POC | 101.5 POC | 99.5 POC | 113.5 POC | 109 POC | 100 POC | 108.5 POC | 87.5 POC | 111.5 POC | 110 POC | 121.5 POC | COCc1ccc2c(c1)C(NC(=O)Nc1c(C)c(-c3cnn(C)c3)nn1-c1ccccc1)COC2 (stereo not drawn) [Example 32, 1-(1′,4-dimethyl-1-phenyl-1H,1′H-[3,4′-bipyrazol]-5-yl)-3-(6-(methoxymethyl)isochroman-4-yl)urea] | Avg. POC (MRCKbeta): 103 POC; Avg. POC (Pim-3): 112 POC; Avg. POC (CK1gamma2): 101.5 POC; Avg. POC (Haspin): 94 POC; Avg. POC (Rsk1): 111.5 POC; Avg. POC (p38alpha): 96.5 POC; Avg. POC (MKK7beta): 138.5 POC; Avg. POC (TSSK1): 88.5 POC; Avg. POC (Fgr): 109.5 POC; Avg. POC (SGK1): 119 POC; Avg. POC (Pim-1): 109 POC; Avg. POC (AURKA): 112.5 POC; Avg. POC (CK2): 97 POC; Avg. POC (DYRK2): 97.5 POC; Avg. POC (TAO1): 100 POC; Avg. POC (TrkA): 0 POC; Avg. POC (Pim-2): 116.5 POC; Avg. POC (PAK4): 98 POC; Avg. POC (JAK2): 122.5 POC |
